From US20170204123A1, “Gold (I)-Phosphine Compounds as Anti-Bacterial Agents” (Auspherix Limited, priority 2014, published 2017)

test system: chinese hamster ovary cells (CHO); test: CHO toxicity assay (CCK-8 cell viability); format: cell-based; details: 50% growth inhibition vs untreated control, 24 hours
Description: Cell counting kit-8 (Sigma, CCK-8) assays were performed to assess the effect of compounds on cell viability. The assay is based on the reduction of a water-soluble tetrazolium salt (WST-8) by cellular dehydrogenases to a formazan dye which can be detected spectroscopically. 96-well plates were seeded with chinese hamster ovary cells (CHO) cells at 7×10^3 cells per well in Dulbecco's modified Eagle's medium nutrient mixture F-12 Ham (containing 15 mM HEPES, NaHCO3, pyridoxine and L-glutamine) supplemented with 10% fetal bovine serum (FBS). The following day serial dilutions of compounds (dissolved and diluted in DMSO) were added to the cells in duplicates. Control included an ‘untreated’ control where cells were grown in the presence of 1% DMSO and a medium only control (plus 1% DMSO). After 24 hours CCK-8 reagent (10 μl) was added to each well and cell viability was assessed by measuring the absorbance at a wavelength of 450 nm after 2.5-3 hours. Only living cells can reduce the tetrazolium salts into coloured formazan products. Results were expressed as 50% growth inhibition (TD50) values compared to ‘untreated’ control.
The therapeutic index was calculated as the ratio of the dose that produces growth inhibition in 50% of CHO cells divided by the dose where 50% of S. aureus growth is inhibited.

Structure (SMILES)	CHO cell TD 50 [µg/mL]
CC[P](CC)(CC)=[Au][S]c1ncccn1 [Compound 3]	0.6
CC[P](CC)(CC)=[Au][S]c1nc2ccccc2[nH]1 [Compound 5]	1.5
C[P](=[Au][S]c1nc2ccccc2[nH]1)(c1ccccc1)c1ccccc1 [Compound 9]	2.6
CC[P](CC)(CC)=[Au][S]C1CCOCC1 [Compound 1]	0.5
CC[P](CC)(CC)=[Au][S]c1cccnn1 [Compound 4]	1.4
CC[P](CC)(CC)=[Au][S]C[C@H](NC(C)=O)C(=O)OC [Compound 7]	2.6
COC(=O)[C@H](C[S][Au]=[P](C)(c1ccccc1)c1ccccc1)NC(C)=O [Compound 10]	1.2
CC[P](CC)(CC)=[Au][Se]C[C@H](NC(C)=O)C(=O)OC [Compound 12]	6.5
C[P](=[Au][S]c1nc2ncccc2o1)(c1ccccc1)c1ccccc1 [Compound 11]	2.0
CC[P](CC)(CC)=[Au][S]C1CCN(C(=O)OC(C)(C)C)CC1 [Compound 2]	0.7
CC[P](CC)(CC)=[Au][S][C@H]1CC[C@H](O)CC1 [Compound 6]	1.5
CC[P](CC)(CC)=[Au][S]c1nc2ncccc2o1 [Compound 8]	1.6

test system: human hepatocyte cell line (HepG2); test: HepG2 cell inhibition assay (CCK-8 cell viability); format: cell-based; details: 50% growth inhibition vs untreated control, 24 hours
Description: HepG2 Cell Inhibition Assay
Cell counting kit-8 (Sigma, CCK-8) assays were performed to assess the effect of compounds on cell viability. The assay is based on the reduction of a water-soluble tetrazolium salt (WST-8) by cellular dehydrogenases to a formazan dye which can be detected spectroscopically. 96-well plates were seeded with the human hepatocyte cell line (HepG2) at approximately 8×10^3 cells per well in Minimum Essential Medium Eagle (EMEM) with Earle's salts and sodium bicarbonate supplemented with 10% heat-inactivated foetal bovine serum 2 mM glutamine and 1% non-essential amino acids (NEAA). The following day serial dilutions of compounds (dissolved and diluted in DMSO) were added to the cells in duplicates. Control included an ‘untreated’ control where cells were grown in the presence of 1% DMSO and a medium only control (plus 1% DMSO). After 24 hours CCK-8 reagent (10 μl) was added to each well and cell viability was assessed by measuring the absorbance at a wavelength of 450 nm after 2-3 h hours. Only living cells can reduce the tetrazolium salts into coloured formazan products. Results were expressed as 50% growth inhibition (TD50) values compared to ‘untreated’ control. The therapeutic index was calculated as the ratio of the dose that produces growth inhibition in 50% of HepG2 cells divided by the dose where 50% of S. aureus growth is inhibited.

Structure (SMILES)	HepG2 cell TD50 [µg/mL]
COC(=O)[C@H](C[Se][Au]=[P](C(C)C)(C(C)C)C(C)C)NC(C)=O [Compound 23]	12
CC[P](CC)(CC)=[Au][S]C[C@H](NC(C)=O)C(N)=O [Compound 16]	9
COC(=O)[C@H](C[S][Au]=[P](C)(C)c1ccccc1)NC(C)=O [Compound 15]	6
C[P](C)(=[Au][S]c1nc2ccccc2[nH]1)c1ccccc1 [Compound 13]	8.5
C[P](C)(=[Au][S]c1nc2ncccc2o1)c1ccccc1 [Compound 14]	9
CC(C)[P](=[Au][S]c1nc2ccccc2[nH]1)(C(C)C)C(C)C [Compound 20]	6
COC(=O)[C@H](C[Se][Au]=[P](C)(c1ccccc1)c1ccccc1)NC(C)=O [Compound 22]	10
